For series [1] the following is noted: in vivo; cited from earlier work.
For series [2], the target named is 5-HT transporter (SERT) (Homo sapiens (Human), UniProt P31645). The following applies: concentration response curve; cited from earlier work.
The subject of series [3] is C57/Bl6 mice. The experiment in a line: Behavioral evaluation assay (SmartCube test). To be noted: FIG. 1. The class given is in vivo. Here is the method: The CNS-like activity of test compounds after acute intraperitoneal administration was evaluated in naïve C57/Bl6 mice using the SmartCube® test.
Male C57/Bl6 mice from Taconic Laboratories (Germantown, NY) were used. Upon receipt, mice were group-housed in Optimice® ventilated cages with 4 mice per cage. Mice were acclimated to the colony room for at least one week prior to test, and subsequently tested at approximately 8-9 weeks of age. All animals were examined, handled, and weighed prior to initiation of the study to assure adequate health and suitability and to minimize nonspecific stress associated with manipulation. During the course of the study, 12/12 light/dark cycles were maintained. The room temperature was 20-23° C. with a relative humidity maintained between 30-70%. Chow and water were provided ad libitum for the duration of the study.
Test compounds were formulated in 5% Pharmasolve, 30% P3 (1:1:1 PEG200, PEG400, propylene glycol) and 65% saline. […]
For class and subclass analysis, a reference dataset has been built from hundreds of drug doses in multiple drug classes plus a control group. […] Multiple analyses of the data was performed to quantitatively produce independent predictions of drug class, and drug subclass. The behavioral signatures of the test drug were evaluated using these classifiers to predict potential therapeutic utility.

For series [4], the target named is PDE4A1A (Homo sapiens (Human), UniProt P27815). The experiment in a line: PDE4 percent inhibition assay. The class given is biochemical. The method, then: (§1) PDE4 assay kit (BPS Bioscience, San Diego, CA), as described below.
(§2) • 1) Dilute 20 μM FAM-Cyclic-3′, 5′-AMP stock 100-fold with PDE buffer to make a 200 nM solution. Make only sufficient quantity needed for the assay; store remaining 20 μM stock solution in aliquots at −20° C. • 2) Add 25 μl of FAM-Cyclic-3′,5′-AMP (200 nM) to each well designated “Positive Control”, “Test Inhibitor”, and “Substrate Control”. • 3) Add 20 μl of PDE assay buffer to each well designated “Substrate Control” and 45 μl of PDE assay buffer to each well designated “Blank”. • 4) Add 5 μl of inhibitor solution to each well designated “Test Inhibitor”. For the wells labeled “Positive Control”, “Substrate Control” and “Blank”, add 5 μl of the same solution without inhibitor (inhibitor buffer). • 5) Thaw PDE on ice. Upon first thaw, briefly spin tube containing enzyme to recover the full contents of the tube. • 6) Dilute PDE4 in PDE buffer to 7.5 pg/μl (0.15 ng/reaction)*. Initiate reaction by adding 20 μl of PDE4 (7.5 pg/μl) to the wells designated “Positive Control” and “Test Inhibitor.” • 7) Incubate at room temperature for 1 hour.
(§3) • 1) Mix binding agent thoroughly and dilute binding agent 1:100 with binding agent diluent. • 2) Add 100 μl diluted binding agent to each microwell. Incubate at room temperature for 1 hour with slow shaking. • 3) Read the fluorescent polarization of the sample in a microtiter-plate reader equipped for the measurement of fluorescence polarization, capable of excitation at wavelengths ranging from 485±5 nm and detection of emitted light ranging from 528±10 nm. Blank value is subtracted from all other values.
(§4) 100 µM dilutions of the test compounds were prepared in assay buffer (10% DMSO concentration) and 5 μl of the dilution was added to a 50 μl reaction so that the final concentration of DMSO is 1% in all of reactions.
(§5) The enzymatic reactions were conducted at room temperature for 60 minutes in a 50 μl mixture containing PDE assay buffer, 100 nM FAM-cAMP, a PDE enzyme and the test compound.
(§6) After the enzymatic reaction, 100 Is of a binding solution (1:100 dilution of the binding agent with the binding agent diluent) was added to each reaction and the reaction was performed at room temperature for 60 minutes.
(§7) Fluorescence intensity was measured at an excitation of 485 nm and an emission of 528 nm using a Tecan Infinite M1000 microplate reader.

The target in series [5] is PDE4C1 (Homo sapiens (Human), UniProt Q08493). The experiment in a line: PDE4 percent inhibition assay. The class given is biochemical. Here is the method:
as §1, §2, §3, §4, §5, §6, §7

Series [6] addresses PDE4D2 (Homo sapiens (Human), UniProt Q08499). The experiment in a line: PDE4 percent inhibition assay. The class given is biochemical. The method, then:
as §1, §2, §3, §4, §5, §6, §7

Series [7] deals with PDE4B2 (Homo sapiens (Human), UniProt Q07343). Put plainly: PDE4 percent inhibition assay. The class given is biochemical. Here is the method: as §1, §2, §3, §4, §5, §6, §7
The target in series [8] is SERT (Homo sapiens (Human), UniProt P31645). Put plainly: SERT inhibition assay (Neurotransmitter Transporter Fluorescence assay). The class given is cell-based. To be noted: class symbols; legend in nM/micromolar. Here is the method: SERT inhibition was measured using a Neruotransmitter Transportation Fluorescence assay. Briefly, stable 5HHH cells were prepared in a 384 microwell plate. Compounds were prepared by in assay buffer (20 mM HEPES, 0.1% BSA). The compounds were added to the plated cells and incubated for 30 minutes at 37° C. 25 μL of dye solution (Molecular Devices Neurotransmitter Transporter Uptake Assay Kit) was added per well and incubated for 30 minutes at 37° C. The plates were then read on a plate reader.

The text below walks through data of patent publication US20250059156A1, “THERAPEUTIC ALKALOID COMPOUNDS” (Sensorium Therapeutics, Inc., priority 2022, published 2025).

Broadly, the inhibition is how much of the control response was suppressed. The IC50 is the point on the concentration scale where inhibition reaches its midpoint.

PDE4B2, sequence (Q07343 other isoform, or with tags, fused parts or gaps): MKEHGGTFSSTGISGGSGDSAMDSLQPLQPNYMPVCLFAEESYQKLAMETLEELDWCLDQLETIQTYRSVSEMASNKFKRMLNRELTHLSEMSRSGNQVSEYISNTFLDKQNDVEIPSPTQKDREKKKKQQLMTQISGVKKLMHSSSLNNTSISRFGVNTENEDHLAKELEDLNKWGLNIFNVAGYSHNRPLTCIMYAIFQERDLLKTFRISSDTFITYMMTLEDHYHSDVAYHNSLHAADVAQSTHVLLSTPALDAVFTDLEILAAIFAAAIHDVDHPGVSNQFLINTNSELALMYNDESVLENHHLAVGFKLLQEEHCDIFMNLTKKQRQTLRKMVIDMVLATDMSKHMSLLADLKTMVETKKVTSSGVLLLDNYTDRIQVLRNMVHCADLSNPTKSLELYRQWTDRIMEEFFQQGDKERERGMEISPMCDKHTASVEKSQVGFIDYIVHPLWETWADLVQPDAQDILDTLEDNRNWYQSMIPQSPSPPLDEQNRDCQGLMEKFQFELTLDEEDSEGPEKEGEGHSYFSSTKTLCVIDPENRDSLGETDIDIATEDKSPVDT
PDE4C1, sequence (Q08493 whole entry): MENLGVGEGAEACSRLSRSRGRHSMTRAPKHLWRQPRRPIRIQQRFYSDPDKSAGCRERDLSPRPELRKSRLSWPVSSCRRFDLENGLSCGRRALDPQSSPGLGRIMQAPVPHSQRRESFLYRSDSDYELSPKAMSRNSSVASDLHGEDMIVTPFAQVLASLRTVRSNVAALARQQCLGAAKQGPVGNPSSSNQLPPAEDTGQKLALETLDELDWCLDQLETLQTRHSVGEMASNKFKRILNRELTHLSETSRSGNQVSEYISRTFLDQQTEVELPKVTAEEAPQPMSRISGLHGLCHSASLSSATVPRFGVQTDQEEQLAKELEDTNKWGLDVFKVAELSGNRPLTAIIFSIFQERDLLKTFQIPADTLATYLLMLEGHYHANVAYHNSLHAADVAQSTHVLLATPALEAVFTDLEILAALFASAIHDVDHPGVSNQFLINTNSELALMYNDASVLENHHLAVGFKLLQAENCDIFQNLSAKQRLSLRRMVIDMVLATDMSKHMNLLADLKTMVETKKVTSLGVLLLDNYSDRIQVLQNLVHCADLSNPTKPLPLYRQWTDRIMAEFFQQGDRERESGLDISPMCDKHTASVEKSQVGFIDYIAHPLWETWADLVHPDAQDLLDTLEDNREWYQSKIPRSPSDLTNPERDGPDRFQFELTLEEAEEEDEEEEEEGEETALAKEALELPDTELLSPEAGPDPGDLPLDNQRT
SERT, sequence (P31645 whole entry, species assumed): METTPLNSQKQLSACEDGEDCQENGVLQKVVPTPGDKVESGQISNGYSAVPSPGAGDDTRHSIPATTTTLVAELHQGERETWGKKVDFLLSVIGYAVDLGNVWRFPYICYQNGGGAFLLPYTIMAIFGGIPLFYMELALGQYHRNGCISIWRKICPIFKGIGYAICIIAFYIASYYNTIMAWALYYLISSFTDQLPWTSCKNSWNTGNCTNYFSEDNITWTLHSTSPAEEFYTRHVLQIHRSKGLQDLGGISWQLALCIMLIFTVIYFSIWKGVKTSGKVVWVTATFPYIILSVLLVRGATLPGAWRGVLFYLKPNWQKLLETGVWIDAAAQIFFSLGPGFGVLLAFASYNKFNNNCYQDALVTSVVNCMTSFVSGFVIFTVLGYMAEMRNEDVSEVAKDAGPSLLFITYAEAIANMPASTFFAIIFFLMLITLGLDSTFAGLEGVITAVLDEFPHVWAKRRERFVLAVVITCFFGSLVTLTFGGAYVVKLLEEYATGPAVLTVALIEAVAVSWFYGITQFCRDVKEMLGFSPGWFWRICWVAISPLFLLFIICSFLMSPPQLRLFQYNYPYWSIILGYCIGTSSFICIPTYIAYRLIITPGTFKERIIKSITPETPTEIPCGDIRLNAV
PDE4D2, sequence (Q08499 303-809, change not shown): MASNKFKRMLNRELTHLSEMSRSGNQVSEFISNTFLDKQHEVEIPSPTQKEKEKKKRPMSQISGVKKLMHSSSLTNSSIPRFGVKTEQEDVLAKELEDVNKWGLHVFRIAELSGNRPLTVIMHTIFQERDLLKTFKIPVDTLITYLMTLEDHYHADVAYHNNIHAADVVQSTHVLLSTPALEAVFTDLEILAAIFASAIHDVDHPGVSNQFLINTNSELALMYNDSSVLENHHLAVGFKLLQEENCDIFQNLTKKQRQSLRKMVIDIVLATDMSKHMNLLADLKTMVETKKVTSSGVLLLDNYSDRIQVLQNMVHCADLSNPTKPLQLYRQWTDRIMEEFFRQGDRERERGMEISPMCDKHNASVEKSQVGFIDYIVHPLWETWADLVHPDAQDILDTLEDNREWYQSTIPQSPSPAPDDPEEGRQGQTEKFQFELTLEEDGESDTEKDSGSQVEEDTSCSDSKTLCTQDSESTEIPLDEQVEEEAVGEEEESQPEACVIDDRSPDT
PDE4A1A, sequence (P27815 other isoform, or with tags, fused parts or gaps): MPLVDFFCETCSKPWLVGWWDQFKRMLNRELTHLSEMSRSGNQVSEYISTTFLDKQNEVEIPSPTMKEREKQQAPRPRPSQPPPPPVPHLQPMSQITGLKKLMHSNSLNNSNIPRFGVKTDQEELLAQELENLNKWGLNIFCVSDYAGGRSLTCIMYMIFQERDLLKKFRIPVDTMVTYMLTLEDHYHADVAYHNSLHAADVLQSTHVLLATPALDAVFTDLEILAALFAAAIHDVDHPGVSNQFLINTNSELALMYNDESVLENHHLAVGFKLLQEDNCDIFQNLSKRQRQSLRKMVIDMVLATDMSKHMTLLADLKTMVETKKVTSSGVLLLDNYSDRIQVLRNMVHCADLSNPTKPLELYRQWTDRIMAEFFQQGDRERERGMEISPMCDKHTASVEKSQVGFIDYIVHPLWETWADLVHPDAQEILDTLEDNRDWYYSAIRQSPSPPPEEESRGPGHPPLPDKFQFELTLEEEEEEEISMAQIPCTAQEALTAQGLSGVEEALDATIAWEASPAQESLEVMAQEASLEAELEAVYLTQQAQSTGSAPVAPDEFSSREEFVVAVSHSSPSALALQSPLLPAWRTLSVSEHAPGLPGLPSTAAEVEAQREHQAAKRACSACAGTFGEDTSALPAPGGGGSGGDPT

Take `COc1ccc([C@@]23CCC(=O)C[C@@H]2N(C)CC3)cc1OC` [(−) mesembrine]: the half-life in plasma result in series [1] is given as “less than 2 hours”.

For the molecule `COc1ccc([C@@]23C=CC(=O)C[C@@H]2N(C)CC3)cc1OC` [Mesembrenone], the “5-HT transporter (SERT) nH” value in series [2] was 1.0.

Regarding `COc1ccc([C@@]23CC[C@@H](O)C[C@@H]2N(C)CC3)cc1OC` [Compound 018, (3aS,6R,7aS)-3a-(3,4-dimethoxyphenyl)-1-methyloctahydro-1H-indol-6-ol], the “behavioral phenotype compared to Compound 001” value in series [3] is on record as “different behavioral phenotype classification”.

In the case of `COc1ccc([C@@]23CCN(C)[C@H]2CC(=O)[C@@H]2O[C@@H]23)cc1OC` (racemic) [Compound 208, rac-(1aR,3aS,6aS,6bR)-6a-(3,4-dimethoxyphenyl)-4-methyloctahydro-2H-oxireno[2,3-e]indol-2-one], the inhibition at 10 µM in series [4] (read-out: PDE4 Isoform % Inhibition @ 10 μM PDE4A1A), in series [5] (read-out: PDE4 Isoform % Inhibition @ 10 μM PDE4C1), in series [6] (read-out: PDE4 Isoform % Inhibition @ 10 μM PDE4D2) and in series [7] (read-out: PDE4 Isoform % Inhibition @ 10 μM PDE4B2) was at least 70% in each case. Besides, the IC50 in series [8] is 50 to 100 nM.

`COc1ccc([C@]23CCN(C)[C@H]2[C@H]2C[C@@H]3CC2=O)cc1OC` [Compound 215]: the “PDE4 Isoform % Inhibition @ 10 μM PDE4A1A” value in series [4] (10 μM) is reported as “D (D if the percent inhibition is less than 30%)”. For the same molecule, the “PDE4 Isoform % Inhibition @ 10 μM PDE4C1” value in series [5] (10 μM) is listed as “D (D if the percent inhibition is less than 30%)”. Moreover, the “PDE4 Isoform % Inhibition @ 10 μM PDE4D2” value in series [6] (10 μM) is listed as “D (D if the percent inhibition is less than 30%)”. In addition, the “PDE4 Isoform % Inhibition @ 10 μM PDE4B2” value in series [7] (10 μM) is listed as “D (D if the percent inhibition is less than 30%)”. The molecule further displayed an IC50 in series [8] of 50 to 100 nM.
